Measurements: PubChem BioAssay AID2060352 (Molecular Pharmacology Branch, DTP, NCI, 2025)
Several values for one entry are separate records, joined by “and”; a condition that tells them apart may be missing. Identical values can stand only once.

System: 616215-338-R-J1-PDC spheroid with HUVEC/MSC, viability
Assay: Anticancer human tumor 616215-338-R-J1-PDC patient-derived colon adenocarcinoma cell line growth inhibition [TAK]
Conditions: for viability, T/C: stronger effect = lower value
From the text: Combinatorial screen of targeted agents with TAK-243 and ipatasertib in multi-cell type tumor spheroids
A high-throughput screen of multi-cell type tumor spheroids was designed to identify active combinations of targeted small molecules and TAK-243 or ipatasertib. Complex spheroids include a stromal component modeled by human endothelial cells (HUVEC) and fibroblasts modeled by human mesenchymal stem cells (MSCs). The concentration ranges selected for each drug and investigational agent were based upon clinically achievable concentrations if the clinical Cmax of the agent was known.
Compounds. The drugs and investigational agents: TAK-243 (785004), ipatasertib (767898), everolimus (733504), selumetinib (741078), bortezomib (756655), trametinib (758246), ixazomib (758254), vemurafenib (761431), dabrafenib (764134), sapanisertib (764658), alpelisib (765974), and copanlisib (816437), were obtained from the National Cancer Institute (NCI) Developmental Therapeutics Program Chemical Repository. The FDA-approved anticancer drug set is available from the NCI Developmental Therapeutics Program. […] The stock solutions were prepared in dimethyl sulfoxide (DMSO, Sigma-Aldrich, St. Louis, MO, cat. D2650) at 800-fold the tested concentration and stored at -70 degrees C prior to their use. All drugs and investigational agents were tested over a range starting from a high concentration at or near the clinical Cmax and decreasing in half-log increments. If the clinical Cmax for an agent had not been determined, the highest concentration tested was 10 microM.
NCI60 Cell Culture. NCI60 cell lines were obtained from the NCI Developmental Therapeutics Program Tumor Repository. For each lot of cells, the Repository performed Applied Biosystems AmpFLSTR Identifiler testing with PCR amplification to confirm consistency with the published Identifier STR profile for each cell line. Cells were kept in continuous culture for no more than 20 passages. The optimal seeding densities for each of the cell lines at each time point assessed were determined prior to performing the concentration response studies. Briefly, the NCI60 human tumor lines were grown as monolayers in RPMI 1640 medium supplemented with 10% FBS and 2 mmol/L L-glutamine.
An additional 2 lines were from the NCI60 cell line panel including melanomas, MALME-3M and SK-MEL-2. Pooled donor human umbilical vein endothelial cells (HUVEC, Lonza, cat. CC-2519) and human mesenchymal stem cells (hMSC, Lonza, cat. PT-2501) were purchased from Lonza (Walkersville, MD).
PDMR cell lines were grown in complete medium (DC medium): Dulbecco's modified Eagle's medium (DMEM)/F12 supplemented with 5% fetal bovine serum (FBS), 2 mM L-glutamine, 100 U/mL penicillin and 100 µg/ml streptomycin, 0.4 µg/ml hydrocortisone, 10 ng/ml epidermal growth factor (EGF) recombinant human protein, 24 µg/mL adenine, and 0.1 mg/mL primocin. During culture from frozen stock vials, PDMR cells were cultured in the same medium containing 10 µM Y-27632 (see Table 3). The PDCs were cultured in complete DMEM/F12 media without 10 microM Y-27632 dihydrochloride for at least two passages prior to the screen. The pooled donor HUVEC and hMSC were cultured in endothelial cell growth medium 2 (PromoCell, Heidelberg, Germany, cat. C-22011) and mesenchymal stem cell growth medium 2 (PromoCell, cat. C-28009), respectively. For all experiments, HUVEC and hMSC were used at passages </=5.
For the pre-screen, cell seeding densities were determined from a titration spanning the range from 5,000 to 313 cells per well. The mct-spheroids including 60% malignant cells, 25% HUVEC and 15% MSC dispensed as a mixture into U-bottom Ultra-Low Attachment 384-well plates (Corning, NY)
High-throughput Drug Combination Screening.
Prior to their inoculation into 384-well plates, malignant cells, HUVEC, and hMSC were removed from T flasks using TrypLE express (Thermo Fisher Scientific, cat. 12605036) and harvested by centrifugation for 5 min at 233 x g. […]

[1] = curve of first compound, second compound 0.3 µM
[2] = curve of first compound, second compound 0.949 µM
[3] = curve of first compound, second compound 3 µM
[4] = curve of first compound, second compound 9.49 µM
[5] = curve of first compound, second compound 30 µM
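Further: spheroids exposed to drugs for 7 days before readout.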

CC(C)CC(NC(=O)CNC(=O)c1cc(Cl)ccc1Cl)B1OC(=O)CC(CC(=O)O)(C(=O)O)O1 (stereo not drawn)
viability, T/C (compound 0.000316 µM): 93.3% and 102%
viability, T/C (compound 0.001 µM): 97.9% and 110%
viability, T/C (compound 0.00316 µM): 104% and 111%
viability, T/C (compound 0.01 µM): 95.5% and 107%
viability, T/C (compound 0.0316 µM): 7.86% and 10.7%
viability, T/C (compound 0.1 µM): 0.16% and 0.17%
IC50 (curve of compound): 18.2 nM and 19.7 nM

CC(C)n1nc(-c2ccc3oc(N)nc3c2)c2c(N)ncnc21 + CC(C)NCC(C(=O)N1CCN(c2ncnc3c2C(C)CC3O)CC1)c1ccc(Cl)cc1
IC50 [1]: 85.8 nM
IC50 [2]: 18.3 nM
IC50 [3]: 2.73 nM
IC50 [4]: < 0.316 nM
IC50 [5]: < 0.316 nM
viability, T/C (second compound 0.3 µM, first compound 0.000316 µM): 93.5%
viability, T/C (second compound 0.3 µM, first compound 0.001 µM): 99.9%
viability, T/C (second compound 0.3 µM, first compound 0.00316 µM): 107%
viability, T/C (second compound 0.3 µM, first compound 0.01 µM): 130%
viability, T/C (second compound 0.3 µM, first compound 0.0316 µM): 112%
viability, T/C (second compound 0.3 µM, first compound 0.1 µM): 41.2%
viability, T/C (second compound 0.949 µM, first compound 0.000316 µM): 112%
viability, T/C (second compound 0.949 µM, first compound 0.001 µM): 119%
viability, T/C (second compound 0.949 µM, first compound 0.00316 µM): 109%
viability, T/C (second compound 0.949 µM, first compound 0.01 µM): 66.6%
viability, T/C (second compound 0.949 µM, first compound 0.0316 µM): 36.7%
viability, T/C (second compound 0.949 µM, first compound 0.1 µM): 22.3%
viability, T/C (second compound 3 µM, first compound 0.000316 µM): 77.2%
viability, T/C (second compound 3 µM, first compound 0.001 µM): 74.2%
viability, T/C (second compound 3 µM, first compound 0.00316 µM): 43.5%
viability, T/C (second compound 3 µM, first compound 0.01 µM): 28.2%
viability, T/C (second compound 3 µM, first compound 0.0316 µM): 17.5%
viability, T/C (second compound 3 µM, first compound 0.1 µM): 13.7%
viability, T/C (second compound 9.49 µM, first compound 0.000316 µM): 28.6%
viability, T/C (second compound 9.49 µM, first compound 0.001 µM): 25.8%
viability, T/C (second compound 9.49 µM, first compound 0.00316 µM): 19%
viability, T/C (second compound 9.49 µM, first compound 0.01 µM): 13.1%
viability, T/C (second compound 9.49 µM, first compound 0.0316 µM): 11%
viability, T/C (second compound 9.49 µM, first compound 0.1 µM): 10.2%
viability, T/C (second compound 30 µM, first compound 0.000316 µM): 12.6%
viability, T/C (second compound 30 µM, first compound 0.001 µM): 11.5%
viability, T/C (second compound 30 µM, first compound 0.00316 µM): 11.4%
viability, T/C (second compound 30 µM, first compound 0.01 µM): 7.84%
viability, T/C (second compound 30 µM, first compound 0.0316 µM): 7.49%
viability, T/C (second compound 30 µM, first compound 0.1 µM): 7.08%

CC(C)(C)c1nc(-c2cccc(NS(=O)(=O)c3c(F)cccc3F)c2F)c(-c2ccnc(N)n2)s1
viability, T/C (compound 0.0316 µM): 104% and 106%
viability, T/C (compound 0.1 µM): 123% and 114%
viability, T/C (compound 0.316 µM): 132% and 107%
viability, T/C (compound 1 µM): 119% and 95.5%
viability, T/C (compound 3.16 µM): 73.2% and 54.6%
viability, T/C (compound 10 µM): 18.3% and 28.5%
IC50 (curve of compound): 5150 nM and 3870 nM

Cn1cnc2c(F)c(Nc3ccc(Br)cc3Cl)c(C(=O)NOCCO)cc21 + CC(C)NCC(C(=O)N1CCN(c2ncnc3c2C(C)CC3O)CC1)c1ccc(Cl)cc1
IC50 [1]: 660 nM
IC50 [2]: 193 nM
IC50 [3]: 18.3 nM
IC50 [4]: < 9.49 nM
IC50 [5]: < 9.49 nM
viability, T/C (second compound 0.3 µM, first compound 0.00949 µM): 128%
viability, T/C (second compound 0.3 µM, first compound 0.03 µM): 145%
viability, T/C (second compound 0.3 µM, first compound 0.0949 µM): 134%
viability, T/C (second compound 0.3 µM, first compound 0.3 µM): 97.5%
viability, T/C (second compound 0.3 µM, first compound 0.949 µM): 28.6%
viability, T/C (second compound 0.3 µM, first compound 3 µM): 10.1%
viability, T/C (second compound 0.949 µM, first compound 0.00949 µM): 127%
viability, T/C (second compound 0.949 µM, first compound 0.03 µM): 110%
viability, T/C (second compound 0.949 µM, first compound 0.0949 µM): 68.7%
viability, T/C (second compound 0.949 µM, first compound 0.3 µM): 37.1%
viability, T/C (second compound 0.949 µM, first compound 0.949 µM): 16.3%
viability, T/C (second compound 0.949 µM, first compound 3 µM): 1.88%
viability, T/C (second compound 3 µM, first compound 0.00949 µM): 62.6%
viability, T/C (second compound 3 µM, first compound 0.03 µM): 39.6%
viability, T/C (second compound 3 µM, first compound 0.0949 µM): 26.2%
viability, T/C (second compound 3 µM, first compound 0.3 µM): 18.2%
viability, T/C (second compound 3 µM, first compound 0.949 µM): 7.02%
viability, T/C (second compound 3 µM, first compound 3 µM): 2.31%
viability, T/C (second compound 9.49 µM, first compound 0.00949 µM): 20.1%
viability, T/C (second compound 9.49 µM, first compound 0.03 µM): 16.6%
viability, T/C (second compound 9.49 µM, first compound 0.0949 µM): 12.3%
viability, T/C (second compound 9.49 µM, first compound 0.3 µM): 8.61%
viability, T/C (second compound 9.49 µM, first compound 0.949 µM): 3.42%
viability, T/C (second compound 9.49 µM, first compound 3 µM): 1.74%
viability, T/C (second compound 30 µM, first compound 0.00949 µM): 9.63%
viability, T/C (second compound 30 µM, first compound 0.03 µM): 9.43%
viability, T/C (second compound 30 µM, first compound 0.0949 µM): 6.77%
viability, T/C (second compound 30 µM, first compound 0.3 µM): 4.12%
viability, T/C (second compound 30 µM, first compound 0.949 µM): 1.89%
viability, T/C (second compound 30 µM, first compound 3 µM): 1.35%

Cn1cnc2c(F)c(Nc3ccc(Br)cc3Cl)c(C(=O)NOCCO)cc21
viability, T/C (compound 0.00949 µM): 115% and 123%
viability, T/C (compound 0.03 µM): 109% and 107%
viability, T/C (compound 0.0949 µM): 98.8% and 134%
viability, T/C (compound 0.3 µM): 64.2% and 90.9%
viability, T/C (compound 0.949 µM): 43.6% and 36.8%
viability, T/C (compound 3 µM): 28.2% and 22.3%
IC50 (curve of compound): 632 nM and 695 nM

CC(=O)Nc1cccc(-n2c(=O)n(C3CC3)c(=O)c3c(Nc4ccc(I)cc4F)n(C)c(=O)c(C)c32)c1
viability, T/C (compound 94.9 pM): 97% and 104%
viability, T/C (compound 0.0003 µM): 110% and 106%
viability, T/C (compound 0.000949 µM): 134% and 90.8%
viability, T/C (compound 0.003 µM): 90.5% and 64%
viability, T/C (compound 0.00949 µM): 33.2% and 29.1%
viability, T/C (compound 0.03 µM): 5.55% and 17.7%
IC50 (curve of compound): 6.78 nM and 4.71 nM
